Measurements reported in patent publication US11911374B2, “Methods and uses for treating cancer” (NELUM CORPORATION, priority 2019, dated 2024).
Read-outs that look alike come from different tables or passages of the source.

Experiments:
Panc163 = Panc163 PDAC subcutaneous xenograft model; format: in vivo, mice; conditions: Panc 163, nab-paclitaxel 50 mg/kg 1dq4×3, TAK-441 25 mg/kg daily p.o.
Description: (§1) After several dose-finding studies to define the most feasible dose of nab-paclitaxel, a dose of 50 mg/kg 1dq4×3 was used. TAK-441 was selected and administered daily at the recommended dose (25 mg/kg daily p.o.). The study was conducted for 21 days. Based on the tumor volume values on experimental day 21, it was estimated the Tumor Growth Inhibition (TGI) factor as indicated in the Table 1. […] In order to evaluate the histological status of the stroma after treatment, Masson's Trichrome stained slides from Panc 163 and Panc 025 models were analyzed.

JH051 = JH051 PDAC subcutaneous xenograft model; format: in vivo, mice; conditions: JH 051, nab-paclitaxel 50 mg/kg 1dq4×3, TAK-441 25 mg/kg daily p.o.
Description: After several dose-finding studies to define the most feasible dose of nab-paclitaxel, a dose of 50 mg/kg 1dq4×3 was used. TAK-441 was selected and administered daily at the recommended dose (25 mg/kg daily p.o.). The study was conducted for 21 days. Based on the tumor volume values on experimental day 21, it was estimated the Tumor Growth Inhibition (TGI) factor as indicated in the Table 1.

Panc025 = Panc025 PDAC subcutaneous xenograft model; format: in vivo, mice; conditions: Panc 025, nab-paclitaxel 50 mg/kg 1dq4×3, TAK-441 25 mg/kg daily p.o.
Description: as §1

human Smo (hSmo) = molecular target: T1, human Smo (hSmo) (Homo sapiens, UniProt Q99835); conditions: 293T cells overexpressing hSmo; read-out: IC50, inhibition of cyclopamine binding to human Smo; cited from earlier work
T1 construct: expressed in transfected cells; host or cells: 293T cells

[1] = tested on: Gli transcriptional activity; conditions: Gli-luc NIH3T3 cells; cited from earlier work
Gli1 mRNA = conditions: MRC5 human embryonic fibroblasts; read-out: IC50, expression of Gli1 mRNA; cited from earlier work
[2] = tested on: medulloblastoma allograft; conditions: cited from earlier work
[3] = tested on: PAN-04 primary human pancreas xenograft; conditions: PAN-04 xenograft, cited from earlier work
[4] = tested on: castration-resistant prostate cancer; conditions: murine castration-resistant prostate cancer models; cited from earlier work
[5] = rats; cited from earlier work
[6] = cited from earlier work
[7] = design: dose or concentration left out as unconfirmed; conditions: mice; cited from earlier work
[8] = design: dose or concentration left out as unconfirmed; conditions: rats; cited from earlier work
[9] = design: dose or concentration left out as unconfirmed; conditions: dogs; cited from earlier work
[10] = design: dose or concentration left out as unconfirmed; conditions: human beings; cited from earlier work
CYP2C8 = molecular target: T2, CYP2C8 (Homo sapiens, UniProt P10632); conditions: cited from earlier work
T2 sequence (P10632 1-490): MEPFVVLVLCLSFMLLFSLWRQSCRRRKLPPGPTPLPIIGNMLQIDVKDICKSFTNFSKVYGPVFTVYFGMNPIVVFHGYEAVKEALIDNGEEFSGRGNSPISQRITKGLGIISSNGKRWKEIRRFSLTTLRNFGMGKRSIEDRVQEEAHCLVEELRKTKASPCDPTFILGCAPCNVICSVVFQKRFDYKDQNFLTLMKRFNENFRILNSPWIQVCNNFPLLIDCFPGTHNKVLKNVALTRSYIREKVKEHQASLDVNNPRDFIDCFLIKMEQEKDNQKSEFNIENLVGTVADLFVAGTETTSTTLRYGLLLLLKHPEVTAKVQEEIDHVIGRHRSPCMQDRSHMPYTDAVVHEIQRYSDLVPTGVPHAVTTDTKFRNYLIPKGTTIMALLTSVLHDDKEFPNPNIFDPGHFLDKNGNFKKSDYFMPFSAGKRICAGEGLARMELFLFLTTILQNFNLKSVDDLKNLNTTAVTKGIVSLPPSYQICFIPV

CYP isozymes = conditions: cited from earlier work
Caco-2 cells = conditions: cited from earlier work
P-glycoprotein (P-gp) = molecular target: T3, P-glycoprotein (P-gp) (Homo sapiens, UniProt P08183); conditions: cited from earlier work
T3 construct: endogenous in cells; host or cells: Caco-2 cells

[11] = tested on: human PDE4 phosphodiesterase; design: dose or concentration left out as unconfirmed; conditions: cited from earlier work
[12] = molecular target: human neurotransmitter dopamine transporter (Homo sapiens, UniProt Q01959); design: dose or concentration left out as unconfirmed; conditions: cited from earlier work
[13] = rats, cited from earlier work
[14] = dogs, cited from earlier work
[15] = cited from earlier work; remark: listed apart in the source
Smo = conditions: preclinical pancreatic cancer models; cited from earlier work
[16] = exposures exceeding the predicted efficacious concentration

T3 sequence (P08183 whole entry): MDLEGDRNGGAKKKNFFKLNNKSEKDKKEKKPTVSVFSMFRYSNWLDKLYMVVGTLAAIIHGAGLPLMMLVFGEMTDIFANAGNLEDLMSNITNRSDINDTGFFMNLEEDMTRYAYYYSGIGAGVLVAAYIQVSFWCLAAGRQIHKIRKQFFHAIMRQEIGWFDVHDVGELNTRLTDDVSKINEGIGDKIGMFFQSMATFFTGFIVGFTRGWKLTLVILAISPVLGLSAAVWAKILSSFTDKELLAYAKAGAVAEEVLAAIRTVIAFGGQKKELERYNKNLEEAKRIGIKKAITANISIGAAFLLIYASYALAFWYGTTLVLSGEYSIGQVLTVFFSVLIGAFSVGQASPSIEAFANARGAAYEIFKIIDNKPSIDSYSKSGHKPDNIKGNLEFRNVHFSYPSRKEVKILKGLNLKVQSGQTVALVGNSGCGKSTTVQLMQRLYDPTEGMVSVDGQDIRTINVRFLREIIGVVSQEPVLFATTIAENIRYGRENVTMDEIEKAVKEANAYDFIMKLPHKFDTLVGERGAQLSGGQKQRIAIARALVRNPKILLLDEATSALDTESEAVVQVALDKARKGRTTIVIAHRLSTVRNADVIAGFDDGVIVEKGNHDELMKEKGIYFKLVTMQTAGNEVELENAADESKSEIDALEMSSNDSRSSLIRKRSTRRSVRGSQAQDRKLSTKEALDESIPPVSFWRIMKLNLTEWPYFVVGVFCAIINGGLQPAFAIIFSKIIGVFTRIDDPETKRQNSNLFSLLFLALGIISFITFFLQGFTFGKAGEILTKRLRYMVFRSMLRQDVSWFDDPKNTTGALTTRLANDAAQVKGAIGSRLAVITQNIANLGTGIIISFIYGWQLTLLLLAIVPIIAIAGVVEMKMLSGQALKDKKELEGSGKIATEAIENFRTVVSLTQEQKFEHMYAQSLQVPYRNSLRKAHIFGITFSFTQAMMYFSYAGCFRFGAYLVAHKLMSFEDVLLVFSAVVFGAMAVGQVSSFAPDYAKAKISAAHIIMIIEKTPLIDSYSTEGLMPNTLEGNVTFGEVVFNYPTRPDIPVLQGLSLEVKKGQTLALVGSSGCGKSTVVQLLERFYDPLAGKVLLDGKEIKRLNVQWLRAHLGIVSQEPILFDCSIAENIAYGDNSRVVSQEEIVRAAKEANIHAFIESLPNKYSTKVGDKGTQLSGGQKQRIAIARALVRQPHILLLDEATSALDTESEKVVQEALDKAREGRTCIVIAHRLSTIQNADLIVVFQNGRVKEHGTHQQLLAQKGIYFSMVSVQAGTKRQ
Sequence of human neurotransmitter dopamine transporter (Q01959 whole entry): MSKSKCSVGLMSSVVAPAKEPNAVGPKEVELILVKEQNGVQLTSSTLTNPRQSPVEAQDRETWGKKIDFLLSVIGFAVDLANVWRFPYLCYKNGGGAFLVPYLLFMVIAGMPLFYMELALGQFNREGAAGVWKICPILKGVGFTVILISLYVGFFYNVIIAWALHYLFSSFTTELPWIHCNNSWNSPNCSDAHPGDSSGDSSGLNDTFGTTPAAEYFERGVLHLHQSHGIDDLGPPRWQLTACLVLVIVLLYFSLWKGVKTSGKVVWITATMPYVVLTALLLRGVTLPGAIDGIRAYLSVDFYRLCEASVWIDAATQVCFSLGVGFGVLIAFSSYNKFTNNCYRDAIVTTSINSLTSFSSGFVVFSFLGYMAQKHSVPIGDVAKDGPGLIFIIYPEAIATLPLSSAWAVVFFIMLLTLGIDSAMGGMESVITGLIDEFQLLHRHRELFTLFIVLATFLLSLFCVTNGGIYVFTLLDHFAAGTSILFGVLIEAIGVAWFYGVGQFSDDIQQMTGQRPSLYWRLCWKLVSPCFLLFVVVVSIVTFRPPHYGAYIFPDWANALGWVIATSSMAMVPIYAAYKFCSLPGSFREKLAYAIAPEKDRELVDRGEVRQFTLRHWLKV
T1 sequence (Q99835 28-787): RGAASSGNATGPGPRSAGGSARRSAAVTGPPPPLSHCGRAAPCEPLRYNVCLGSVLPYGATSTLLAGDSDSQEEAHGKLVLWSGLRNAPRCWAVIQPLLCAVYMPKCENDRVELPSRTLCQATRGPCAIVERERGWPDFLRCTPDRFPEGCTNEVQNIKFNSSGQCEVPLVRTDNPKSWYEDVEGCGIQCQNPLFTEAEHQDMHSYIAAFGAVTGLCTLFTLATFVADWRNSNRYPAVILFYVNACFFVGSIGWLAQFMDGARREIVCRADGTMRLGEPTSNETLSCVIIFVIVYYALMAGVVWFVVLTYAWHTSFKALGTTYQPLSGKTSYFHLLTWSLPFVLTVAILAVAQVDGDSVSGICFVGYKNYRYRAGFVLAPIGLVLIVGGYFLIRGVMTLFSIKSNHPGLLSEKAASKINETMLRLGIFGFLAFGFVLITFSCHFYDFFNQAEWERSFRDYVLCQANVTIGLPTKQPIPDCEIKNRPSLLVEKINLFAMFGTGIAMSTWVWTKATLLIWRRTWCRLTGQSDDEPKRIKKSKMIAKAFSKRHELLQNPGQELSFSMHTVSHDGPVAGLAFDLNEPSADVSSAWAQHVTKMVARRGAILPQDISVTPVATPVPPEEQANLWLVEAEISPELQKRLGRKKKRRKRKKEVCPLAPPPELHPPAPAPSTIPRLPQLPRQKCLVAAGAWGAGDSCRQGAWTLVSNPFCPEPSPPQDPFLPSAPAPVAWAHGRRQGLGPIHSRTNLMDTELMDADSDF

## CCc1cc2c(c(OCC(F)(F)F)c(C(=O)NC3CCN(C(=O)CO)CC3)n2C)c(=O)n1CC(=O)c1ccccc1 [TAK-441, 6-ethyl-N-[1-(hydroxyacetyl)piperidin-4-yl]-1-methyl-4-oxo-5-(2-oxo-2-phenylethyl)-3-(2,2,2-triflurorethoxy)-4,5-dihydro-1H-pyrrolo[3,2-c]pyrdine-2-carboxamide]
Panc163
  TGI (%) day 21 (1 − [Tf − Ti]/[Cf − Ci]): 61%
JH051
  TGI (%) day 21 (1 − [Tf − Ti]/[Cf − Ci]): 15%
Panc025
  TGI (%) day 21 (1 − [Tf − Ti]/[Cf − Ci]): 42%
Human Smo (hSmo)
  IC50: 8.6 nM
[1]
  IC50: 4.4 nM
Gli1 mRNA
  IC50: 1.9 nM
[2]; Ohashi et al.
  Gli1 mRNA expression in tumor-associated stromal tissue: suppressed
[2]; medulloblastoma allograft, mouse tumor
  expression of Gli1 mRNA in vivo: dose-dependent inhibition
[2]; medulloblastoma allograft, p<0.025
  tumor activity: significant dose-dependent tumor activity
[2]; mouse medulloblastoma allograft model
  tumor growth treatment/control ratio: 3%
[3]; stromal tumor associated
  expression of Gli1 mRNA in vivo: dose-dependent inhibition
[3]; p<0.025
  tumor activity: significant dose-dependent tumor activity
[4]
  tumor progression / paracrine Hh ligand signaling: inhibit tumor progression
[5]
  CL: 2.688 mL/min/kg
  distribution volume in steady state plasma (Vss): 0.6816 L/kg
  t %: 1.7 h
[6]; dogs
  CL: 6.632 mL/min/kg
  distribution volume in steady state plasma (Vss): 2.1813 L/kg
  t %: 9.8 h
[6]; fed dogs compared with fasting dogs
  increase of degree of absorption, fed versus fasting (Cmax and AUC0-24 h): approximately 2 times
[7]
  binding to plasma proteins: 99.7%
[8]
  binding to plasma proteins: 96.2%
[9]
  binding to plasma proteins: 79.6%
[10]
  binding to plasma proteins: 87.7%
CYP2C8
  CYP2C8 inhibition: weak inhibitor
CYP isozymes
  inhibitory effect on other CYP isozymes: no inhibitory effect
CYP isozymes; human liver microsomes
  time-dependent inhibition of CYP isoenzyme: not a time-dependent inhibitor
Caco-2 cells
  Papp, A-to-B: 19.6 '10-6 cm/sec
P-glycoprotein (P-gp)
  substrate for P-glycoprotein (P-gp) flow pump: bad substrate
[11]
  inhibition of human PDE4 phosphodiesterase: 67%
[12]
  inhibition of human dopamine transporter: 75%
[13]
  other findings of unknown relevance to humans: gait alterations and tremors
[13]; [16]
  toxicological changes: decreased body weight; atrophy of the growth plate in the ribs and hair follicles; erosion or ulceration of the gastric mucosa; anemia; necrosis and hypocellularity of the bone marrow as well as inflammation and hemorrhage in the lung
[14]
  dose-limiting toxicities: weight loss; decrease in food consumption; injuries of the gastrointestinal tract
[14]; [16]
  toxicological changes: decreased body weight; atrophy of the growth plate in the ribs and hair follicles; erosion or ulceration of the gastric mucosa; anemia; necrosis and hypocellularity of the bone marrow as well as inflammation and hemorrhage in the lung
[15]; a patient with basal cell carcinoma
  clinical response: partial response
[15]; after a single dose
  mean Tmax: 1.8 to 4.2 h
[15]; after several doses
  mean Tmax: 2.4 to 4.0 h
[15]; dose range 50-1600 mg
  pharmacokinetics based on plasma concentration-time AUC: linear over the entire dose range
[15]; patients
  dose-limiting toxicities: muscle spasms and fatigue
  inhibition of Gli1 gene expression in skin biopsies: observed with all doses analyzed
  median elimination half-life: 12.9 to 18.3 h
  tolerability: well-tolerated

## CC1=C2C[C@H]3[C@@H](CC[C@@H]4C[C@H](NS(C)(=O)=O)CC[C@@]43C)[C@@H]2CC[C@@]2(C1)O[C@@H]1C[C@H](C)CN[C@H]1[C@H]2C [IPI-926]
Smo
  stroma, tumor vascularization and effect of Gem chemotherapy: selective stromal elimination, better tumor vascularization, and greater effect of Gem chemotherapy
